We go through 1 compound from publication PMC4467461, “Small-molecule activation of SERCA2a SUMOylation for the treatment of heart failure” (Nature Communications, 2015).

The target of the test is T1, ubiquitin-activating enzyme (Ub E1) (Homo sapiens, UniProt P22314).
T1 sequence (P22314 1-1058): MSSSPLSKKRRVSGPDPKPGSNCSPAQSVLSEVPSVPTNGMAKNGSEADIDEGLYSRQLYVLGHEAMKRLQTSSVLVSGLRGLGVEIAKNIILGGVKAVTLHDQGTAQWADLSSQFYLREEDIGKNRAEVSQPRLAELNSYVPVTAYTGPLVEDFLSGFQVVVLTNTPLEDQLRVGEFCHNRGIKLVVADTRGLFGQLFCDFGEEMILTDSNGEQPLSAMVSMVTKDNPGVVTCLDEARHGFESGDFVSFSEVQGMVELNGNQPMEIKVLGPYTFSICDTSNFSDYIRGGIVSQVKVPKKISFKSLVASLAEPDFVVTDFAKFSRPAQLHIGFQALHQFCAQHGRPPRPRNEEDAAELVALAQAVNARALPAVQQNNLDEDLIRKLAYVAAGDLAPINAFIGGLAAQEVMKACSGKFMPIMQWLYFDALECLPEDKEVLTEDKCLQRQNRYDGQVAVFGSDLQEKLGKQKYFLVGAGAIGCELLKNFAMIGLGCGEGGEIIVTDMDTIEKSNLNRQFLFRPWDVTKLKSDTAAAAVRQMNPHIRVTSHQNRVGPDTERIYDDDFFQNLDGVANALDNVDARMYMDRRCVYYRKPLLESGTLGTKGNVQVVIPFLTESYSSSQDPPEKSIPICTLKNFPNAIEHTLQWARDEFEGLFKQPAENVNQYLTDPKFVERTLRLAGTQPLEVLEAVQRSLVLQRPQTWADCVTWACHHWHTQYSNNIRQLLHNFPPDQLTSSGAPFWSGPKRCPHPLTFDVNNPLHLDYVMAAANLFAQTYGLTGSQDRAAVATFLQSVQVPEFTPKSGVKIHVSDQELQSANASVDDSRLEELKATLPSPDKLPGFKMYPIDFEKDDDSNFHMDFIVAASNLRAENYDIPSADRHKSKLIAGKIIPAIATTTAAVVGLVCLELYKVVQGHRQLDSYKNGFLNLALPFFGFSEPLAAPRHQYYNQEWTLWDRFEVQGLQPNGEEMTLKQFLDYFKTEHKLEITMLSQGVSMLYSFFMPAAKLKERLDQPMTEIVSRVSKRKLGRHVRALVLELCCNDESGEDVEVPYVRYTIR
Kind of test: Ubiquitin-activating E1 enzyme activity (ATP hydrolysis and in vitro conjugation assays). The class given is biochemical. The following applies: at concentrations up to 100 μM. The procedure: Biochemical activity of SUMO-specific E1 enzymes was examined by ATPase assay and in-vitro gel-shifting assays. ATP hydrolysis activity of E1 enzymes was measured by using pyrophosphate assay kit (Abcam Inc.). E1 (0.05 μM), 0.25 μM E2, 12.5 μM SUMO-1 and 1 mM ATP with N106 or DMSO were used for the assays. The E1-thioester formation was analysed in reaction mixtures containing 0.05 μM E1, 12.5 μM SUMO-1 and 1 mM ATP with N106 or DMSO. The E1-dependent E2-SUMO-1 thioester formation was assessed using reaction containing 0.05 μM E1, 0.25 μM E2, 12.5 μM SUMO-1 and 1 mM ATP with N106 or DMSO. Assays were incubated at 37 °C for 30 min and were mixed with non-reducing sample buffer, and analysed in non-reducing condition. Western blotting using antibodies against SAE2 and Ubc9 detected the SUMO conjugations. […]
Supplementary Figure 5. […] Ubiquitin activating E1 enzyme activity was determined by ATP hydrolysis and in vitro conjugation assays. […] Inorganic pyrophosphate resulting from ATP hydrolysis in E1-catalazed ubiquitin activity was quantified with the use of a fluorogenic pyrophosphate assay kit. […] Thioester bond formation between ubiquitin specific E1 enzyme and ubiquitin were detected by Western blot analysis. […] E1-dependent thioester bond formation between E2 and ubiquitin was detected by Western blotting with anti-ubiquitin antibody. […]

`COc1ccc(-c2nnc(Nc3nc4c(OC)cccc4s3)o2)cc1` [Compound N106, N-(4-methoxybenzo[d]thiazol-2-yl)-5-(4-methoxyphenyl)-1,3,4-oxadiazol-2-amine]: the “in-vitro activity of Ub E1 (ubiquitin activation, conjugation of ubiquitin to Ub E1, Ub E1-dependent conjugation to E2 cdc32)” value is recorded as “did not significantly stimulate”.
